{
  "source": "patent US20180074053A1",
  "about": "(priority 2016, published 2018)",
  "key": {"[1]": {"system": "C57BL/6J mice", "experiment": "Oral glucose tolerance test (OGTT)", "assay_type": "in vivo, mouse", "conditions": "for overall effect on blood glucose in OGTT: Example 8, FIG. 13, GABA 200 mg/kg, DT-109 1 mg/g, p<0.01 2-way ANOVA; for overall effect on blood glucose in OGTT vs vehicle: Example 9, FIG. 14, DT-110 1 mg/g, alamandine 10 mg/g, metformin 0.2 mg/g; for significance of blood glucose lowering in OGTT / blood glucose in response to a glucose load (OGTT): Example 5, FIG. 9; for blood glucose in response to a glucose load (OGTT): 1, 0.5 and 0.1 mg/g body weight", "method": "(§1) C57BL/6J mice were received from Jackson Laboratories at 4 weeks old and aged to 7 weeks and then grouped by body weight into 4 groups of 10. The mice were fasted overnight (12 hours) prior to the assay. Body weights and blood glucose (FreeStyle Lite glucometer) levels were determined. […] At 30, 60, 90, and 120 minutes glucose levels were measured using whole blood collected from the tip of the tail via needle puncture. Upon the final 120 min measurement, food was returned to the mice.\nOral glucose tolerance tests (OGTTs) were performed as described in Example 1.\nas §1, with “puncture.” for “puncture. Upon the final 120 min measurement, food was returned to the mice.”\nas §1, with “puncture.” for “puncture. Upon the final 120 min measurement, food was returned to the mice.”"}, "[2]": {"biological_target": "T1, MRGD (Homo sapiens, UniProt Q8TDS7)", "T1 sequence (Q8TDS7 whole entry)": "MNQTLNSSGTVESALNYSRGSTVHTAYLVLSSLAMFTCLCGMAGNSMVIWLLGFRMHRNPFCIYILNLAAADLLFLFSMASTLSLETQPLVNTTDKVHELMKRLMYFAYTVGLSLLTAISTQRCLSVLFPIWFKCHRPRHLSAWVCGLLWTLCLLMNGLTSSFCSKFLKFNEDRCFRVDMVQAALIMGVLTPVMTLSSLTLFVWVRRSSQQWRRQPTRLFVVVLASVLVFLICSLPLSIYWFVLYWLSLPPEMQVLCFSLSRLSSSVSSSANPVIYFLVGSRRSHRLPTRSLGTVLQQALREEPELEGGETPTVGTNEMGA", "experiment": "Calcium mobilization in MRGD over-expressing cells", "assay_type": "cell-based", "set-up": "host or cells: ChemiScreen over-expressing cell line, given as 'HEK 293T cells (Chem-1, EMD Millipore)'", "conditions": "for activation of calcium mobilization: Example 6, FIG. 10, entire dose range", "method": "(§2) Cells were grown in DMEM medium containing 10% FBS, 1× non-essential amino acids (Gibco #111450-040), 20 mM HEPES and 250 μg/mL Geneticin® (Gibco #10131-035). Cells were harvested with 0.25% Trypsin/EDTA (Gibco #25200-056), pelleted at 1,200×g for 6 minutes and resuspended in DMEM media described above minus Geneticin®. The cells were seeded at 4×10^4 cells/well/100 μL of a clear bottom/black 96-well plate and grown overnight. The calcium mobilization assays was performed using Screen Quest Fluo-8 Medium Removal Calcium Assay Kit (AAT Bioquest #36308) according to the manufacturer's protocol. Briefly, cells were washed with 100 μL volume of Hank's balanced salt solution, 20 mM HEPES, pH 7.4 and loaded with a buffer containing HBSS, 20 mM HEPES, 1× Pluronic F127 and the Fluo-8 NW dye. The cells were incubated for 30 minutes at 37° C. followed by a 30 minute room temperature incubation. Drug stocks were prepared at 100× concentration and diluted 1:33 in HBSS, 20 mM HEPES, pH 7.4 in a 96-well plate (Corning #3641). Calcium mobilization was measured using the FlexStation 3 (Molecular Devices) at excitation wavelength of 490 nm and emission wavelength of 525 nm. Fluorescence was measured for 180 seconds at 5 second intervals with the addition of compound at a 1:3 dilution after 15 seconds. Peak fluorescence values were calculated using SoftMax Pro 5 (Molecular Devices). The fluorescence values obtained from control wells without cells are subtracted from wells containing treated cells to correct for background. The ratio of fluorescence values of treated cells to vehicle control wells was used to calculate fold activity of the compounds.\nMRGD cells (EMD Millipore, MA) were treated with either β-alanine, or alamandine at various concentrations (FIG. 10) and calcium mobilization was monitored using a FlexStation 3 Microplate Reader (Molecular Devices) as described in Example 4."}, "[3]": {"system": "STC-1 cells", "experiment": "GLP-1 secretion from STC-1 cells (ELISA)", "assay_type": "cell-based, mouse", "conditions": "STC-1 cells, co-treatment with DT-110, 2 hours; FIG. 3", "method": "The pathways and sites of action of H89 and U73122 are graphically represented in FIG. 2.\nSupernatants were collected for GLP-1 measurement. and the GLP-1 concentration was measured using a total GLP-1 (7-36 and 9-36) ELISA kit according to manufacturer's instruction (Alpco. Salem, N.H.)."}, "[4]": {"biological_target": "GPCR109a (Homo sapiens, UniProt Q8TDS4)", "sequence (Q8TDS4 whole entry)": "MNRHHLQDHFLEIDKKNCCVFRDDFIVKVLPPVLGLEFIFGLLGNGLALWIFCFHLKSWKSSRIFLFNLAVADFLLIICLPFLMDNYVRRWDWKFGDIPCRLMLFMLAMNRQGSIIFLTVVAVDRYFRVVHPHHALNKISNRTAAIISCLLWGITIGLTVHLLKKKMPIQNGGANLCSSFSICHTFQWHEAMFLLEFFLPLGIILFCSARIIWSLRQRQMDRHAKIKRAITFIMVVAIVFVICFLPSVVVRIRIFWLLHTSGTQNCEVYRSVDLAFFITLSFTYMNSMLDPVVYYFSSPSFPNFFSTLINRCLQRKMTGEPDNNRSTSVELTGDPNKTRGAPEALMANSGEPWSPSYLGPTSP", "conditions": "doses of 5 mM and below; FIG. 6A", "method": "as §2\n(§3) The specificity of the agonist activity was determined by testing in the cell lines that over-express GPCR40 and GPCR 109a."}, "[5]": {"biological_target": "GPCR40 (Homo sapiens, UniProt O14842)", "sequence (O14842 whole entry)": "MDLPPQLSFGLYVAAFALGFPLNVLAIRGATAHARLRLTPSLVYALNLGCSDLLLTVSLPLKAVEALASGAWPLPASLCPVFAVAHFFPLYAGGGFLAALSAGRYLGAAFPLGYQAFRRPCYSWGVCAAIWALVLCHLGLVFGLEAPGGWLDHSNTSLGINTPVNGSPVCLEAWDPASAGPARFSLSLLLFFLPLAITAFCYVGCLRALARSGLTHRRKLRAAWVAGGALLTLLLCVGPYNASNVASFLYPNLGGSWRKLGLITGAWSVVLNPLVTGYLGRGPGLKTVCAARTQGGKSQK", "conditions": "doses of 5 mM and below; FIG. 7A", "method": "as §2, §3"}, "[6]": {"system": "MrgprD^−/− (KO) mice", "conditions": "P<0.05 KO vs. WT", "method": "(§4) The mice were fasted overnight and their fasting glucose levels were measured. […] Blood glucose levels were measured at 30, 60, 90 and 120 minutes after glucose loading.\nas §4"}, "[7]": {"system": "STC-1 cells", "conditions": "has been shown; cited from earlier work"}, "[8]": {"system": "C57/BL/6J mice and diabetic mouse models", "conditions": "previous studies (Zhang 2013; U.S. Pat. No. 8,664,177); cited from earlier work"}, "[9]": {"system": "diabetic mice", "conditions": "has been shown; cited from earlier work"}, "[10]": {"system": "eNOS", "experiment": "eNOS mRNA expression in HUVEC", "assay_type": "cell-based, human", "conditions": "FIG. 15", "text": "It has been shown that activation of MRGD by alamandine plays an important role in vasodilation by increasing nitric oxide (NO) production. NO produced by the endothelium is an important protective molecule in the vasculature and is mainly generated by the enzyme endothelial NO synthase (eNOS) in blood vessels. Enhancing the expression of eNOS has been considered as possible therapeutic strategy for reducing cardiovascular risk."}, "[11]": {"biological_target": "T1, MRGD", "experiment": "Calcium mobilization in MRGD cells, antagonist mode", "assay_type": "cell-based", "set-up": "host or cells: ChemiScreen over-expressing cell line, given as 'HEK 293T cells (Chem-1, EMD Millipore)'", "conditions": "15 min pre-incubation 30 nM-3 μM, FIG. 11", "method": "A similar assay was run in the antagonist mode where cells were first incubated with 0, 30 nM, 300 nM or 3 μM alamandine as shown in FIG. 11 (x-axis) for 15 minutes. Then one of 3 different agonists was added to the wells, at their EC90 and the calcium mobilization recorded."}, "[12]": {"biological_target": "MAS-related G-protein-coupled receptor member D (MRGD) (human, UniProt Q8TDS7 1-321)", "sequence (Q8TDS7 whole entry)": "as the sequence (Q8TDS7 whole entry) above", "experiment": "cell-based or functional assay"}},
  "note": "“Also recorded” adds a separate entry of the source. Read-outs that look alike come from different tables or passages of the source.",
  "data": [
    {"molecule": "NCCCC(=O)O", "note": "[GABA, gamma amino butyric acid, reference compound]", "values": [
      {"measurement": "overall effect on blood glucose in OGTT", "setting": "[1]", "result": "overall significant effect in lowering blood glucose"},
      {"measurement": "EC50", "setting": "[2]; Example 7, FIG. 12, read-out: half maximal effective concentration (EC50)", "result": "~68", "unit": "µM"}
    ]},
    {"molecule": "CN(C)C(=N)N=C(N)N", "note": "[metformin, reference compound]", "values": [
      {"measurement": "overall effect on blood glucose in OGTT vs vehicle", "setting": "[1]", "result": "significant effect on blood glucose"},
      {"measurement": "effect on blood glucose compared with alamandine", "setting": "[1]; Example 9, P<0.001", "result": "significantly better than alamandine"}
    ]},
    {"molecule": "COc1ccc2c(c1)CC[C@@H]1[C@@H]2CC[C@]2(C)[C@@H](NCCCCCCN3C(=O)C=CC3=O)CC[C@@H]12", "note": "[U73122]", "values": [
      {"measurement": "inhibition of DT-110 stimulated GLP-1 secretion", "setting": "[3]", "result": "inhibit DT-110 stimulated GLP-1 secretion; also recorded: partially inhibited"}
    ]},
    {"molecule": "O=S(=O)(NCCNC/C=C/c1ccc(Br)cc1)c1cccc2cnccc12", "note": "[H89]", "values": [
      {"measurement": "inhibition of DT-110 stimulated GLP-1 secretion", "setting": "[3]", "result": "inhibit DT-110 stimulated GLP-1 secretion; also recorded: partially inhibited"}
    ]},
    {"molecule": "CC(C)C[C@H](NC(=O)CNC(=O)CN)C(=O)O", "values": [
      {"measurement": "blood glucose levels during OGTT", "setting": "[1]; Example 1, FIG. 1A, 2 mg/g glucose plus 1.0, 0.5 or 0.1 mg/g oral gavage, 30-120 min", "result": "lowers blood glucose levels in C57BL/6J mice during OGTT in a dose dependent manner"},
      {"measurement": "blood glucose area under curve (AUC) in OGTT", "setting": "[1]; Example 1, FIG. 1B, 1.0, 0.5 or 0.1 mg/g oral, p<0.01 vs control", "result": "significantly lowers blood glucose in mice in a dose dependent manner"},
      {"measurement": "significance of blood glucose lowering in OGTT", "setting": "[1]; 0.1 mg/g", "result": "significant"},
      {"measurement": "significance of blood glucose lowering in OGTT", "setting": "[1]; 0.5 mg/g", "result": "significant"},
      {"measurement": "significance of blood glucose lowering in OGTT", "setting": "[1]; 1 mg/g", "result": "significant"},
      {"measurement": "blood glucose in response to a glucose load (OGTT)", "setting": "[1]", "result": "lower blood glucose in response to a glucose load, in a dose-dependent manner"},
      {"measurement": "overall effect on blood glucose in OGTT", "setting": "[1]", "result": "overall significant effect in lowering blood glucose"},
      {"measurement": "agonist activity (Ca2+ flux)", "setting": "[4]", "result": "inactive"},
      {"measurement": "agonist activity (Ca2+ flux)", "setting": "[5]", "result": "inactive"},
      {"measurement": "reduction of blood glucose levels in KO mice compared with WT mice (OGTT)", "setting": "[6]; 0.25 mg/g with 2 mg/g glucose oral", "result": "significantly impaired"},
      {"measurement": "reduction of blood glucose levels in KO mice compared with WT mice (OGTT)", "setting": "[6]; 0.5 mg/g with 2 mg/g glucose oral", "result": "significantly impaired"},
      {"measurement": "GLP-1 secretion", "setting": "[7]", "result": "stimulate GLP-1 secretion"},
      {"measurement": "blood glucose", "setting": "[8]", "result": "lower blood glucose"},
      {"measurement": "GLP-1 level", "setting": "[9]", "result": "elevate GLP-1 level"},
      {"measurement": "calcium mobilization activity", "setting": "[2]; at 5 mM, highest dose used, Example 4", "result": "active"}
    ]},
    {"molecule": "alamandine", "values": [
      {"measurement": "overall effect on blood glucose in OGTT vs vehicle", "setting": "[1]", "result": "weak but overall significant effect"},
      {"measurement": "eNOS mRNA levels", "setting": "[10]; 30 minutes, vs control", "result": "the same"},
      {"measurement": "eNOS expression", "setting": "[10]; 60 minutes", "result": "increased eNOS expression"},
      {"measurement": "eNOS expression", "setting": "[10]; 120 minutes", "result": "returned to control levels"},
      {"measurement": "activation of calcium mobilization", "setting": "[2]", "result": "no activation of calcium mobilization; also recorded: did not"},
      {"measurement": "effect on DT-109 signaling", "setting": "[11]; DT-109 at EC90", "result": "did not have any significant effect"},
      {"measurement": "effect on DT-110 signaling", "setting": "[11]; DT-110 at EC90", "result": "did not have any significant effect"},
      {"measurement": "effect on β-alanine signaling", "setting": "[11]; β-alanine at EC90, P<0.05", "result": "significantly decreased β-alanine signaling"}
    ]},
    {"molecule": "NCCC(=O)O", "note": "[β-alanine, reference compound]", "values": [
      {"measurement": "significance of blood glucose lowering in OGTT", "setting": "[1]; 0.1 mg/g", "result": "did not"},
      {"measurement": "significance of blood glucose lowering in OGTT", "setting": "[1]; 0.5 mg/g", "result": "showed significance"},
      {"measurement": "significance of blood glucose lowering in OGTT", "setting": "[1]; 1 mg/g", "result": "showed significance"},
      {"measurement": "blood glucose in response to a glucose load (OGTT)", "setting": "[1]", "result": "lower blood glucose in response to a glucose load, in a dose-dependent manner"},
      {"measurement": "EC50", "setting": "[2]; Example 4, FIG. 8, DT-110 lot 2, read-out: EC50", "result": 7.5, "unit": "µM"},
      {"measurement": "activation of calcium mobilization", "setting": "[2]", "result": "stimulated calcium mobilization"},
      {"measurement": "potency relative to DT-110 or DT-109", "setting": "[2]; FIG. 8", "result": "more than 10 fold"}
    ]},
    {"molecule": "GGL", "note": "[DT-109, three amino acid peptide glycine-glycine-leucine (GGL)]", "values": [
      {"measurement": "EC50, calcium mobilization in MRGD over-expressing cells (FIG. 5)", "setting": "[12]", "result": 600, "unit": "µM"},
      {"measurement": "EC50, calcium mobilization in the MRGD cell line (FIG. 8)", "setting": "[12]", "result": 178, "unit": "µM"}
    ]}
  ]
}
